Data: patent US5068247A, “2-aminopentanoic acid compounds and their use as immunosuppressants” (priority 1989, dated 1991)

Experiments:
[1] = system: allo-reactive cytotoxic T cell (EL4 target cells); experiment: suppression of induction of allo-reactive cytotoxic T cell in mouse allogenic mixed lymphocyte culture (MLC), 51Cr release; assay type: cell-based
Protocol: The target cells used were leukemia cells EL4 from the syngenic (H-2^b) C57BL/6 mouse as used for preparation of the stimulator cells. By incubating 10^6 EL4 cells in the presence of 370 KBq of Na2^51 CrO4 at 37° C. for 1 hour, ^51 Cr was incorporated into the cytoplasm. The cells were washed, adjusted to the concentration of 10^4 cells/ml and used as the target cells.
For the assay of the cytotoxic activity, 100 μl of the effector cell suspension and 100 μl of the target cell suspension were added to a 96-well flat-bottomed microculture plate, and cultured at 37° C. for 4 hours. The amount of ^51 Cr released into the supernatant was determined and the cytotoxic activity was calculated by the following formula. [formula]
The activity of the cytotoxic T cell is expressed by LU (lytic unit) per 10^6 effector cells.

[2] = system: IL-3 production in mouse allogenic MLC; experiment: suppression of IL-3 production in mouse allogenic MLC; assay type: cell-based
Protocol: Mouse allogenic MLC was carried out as follows:
After termination of culture, the supernatant was collected and used as the supernatant of mouse allogenic MLC.

[3] = system: allo-reactive cytotoxic T cells in spleen of EL4-immunized BALB/c mice; experiment: suppression of allo-reactive cytotoxic T cells induced by immunization of mouse with allogenic cells; assay type: in vivo
Protocol: Male 5- to 7-week-old BALB/c mice (H-2^d) were immunized with leukemia cell EL4 derived from C57BL/6 mice (H-2^b) (10^7 cells/mouse, intraperitoneal administration), and the test substance was administered intraperitoneally 5 times at the doses of 0.001 to 3 mg/kg/day or orally at the doses of 0.3 to 10 mg/kg/day from the day of immunization. Nine to ten days after immunization, the spleen was resected from the mice to prepare a single cell suspension and the suspension was used as effector cell suspension. The ^51 Cr-release assay was carried out in the same way as in Experiment Example 3, using EL4 cells as the target cells to measure the cytotoxic activity.
The activity of allo-reactive cytotoxic T cell is indicated by lytic unit (LU) per spleen. One lytic unit (LU) is defined as the number of effector cells required to cause 25% lysis of 5×10^3 target cells. At the same time, the body weight of mouse and number of spleen cells were also determined.

[4] = cytotoxicity to cultured tumor cell line MOLT4; assay type: cell-based, human; conditions: human, molt4 cells, read-out: Suppression
Protocol: (§1) Cytotoxicity to various human tumor cell lines was examined as follows:
(§2) Cells of human cell lines, K562, MOLT4, U937 and HL60 were respectively suspended to the concentration of 4×10^5 cells/ml in the RPMI1640 culture medium supplemented with 20% FCS. Fifty μl of each suspension was added to each well of a 96-well microtest plate to which 50 μl of the test solution had been added. After culturing the suspension at 37° C. in an atmosphere of 5% carbon dioxide for 72 hours, the absorbancy at 570 nm was measured in the same way as with the colorimetry using MTT in Experiment Example 1, and the percent suppression was calculated by the following formula, which was used as an index of cytotoxicity.

MOLT4 = experiment: cytotoxicity to cultured tumor cell line MOLT4; assay type: cell-based, human
Protocol: as §1, §2

[5] = cytotoxicity to cultured tumor cell line K562; conditions: human, k562 cells, Suppression
Protocol: as §1, §2

K562 = experiment: cytotoxicity to cultured tumor cell line K562
Protocol: as §1, §2

[6] = cytotoxicity to cultured tumor cell line HL60; conditions: human, hl60 cells, Suppression
Protocol: as §1, §2

HL60 = experiment: cytotoxicity to cultured tumor cell line HL60
Protocol: as §1, §2

[7] = 0.01 mg/kg/day ip × 5, Table 9A
[8] = 0.03 mg/kg/day ip × 5, Table 9A

## CCCCCCCCCCCCCCCC[C@@H](O)[C@H](O)[C@@](N)(CO)C(=O)O [Example 2]
[1]; 0.001 μg/ml, BALB/c responder
  Cytotoxic activity: 16.0 LU/10^6
[1]; 0.01 μg/ml, BALB/c responder
  Cytotoxic activity: 13.0 LU/10^6
[1]; 0.1 μg/ml, BALB/c responder
  Cytotoxic activity: < 1.0 LU/10^6
[1]; 1 μg/ml, BALB/c responder
  Cytotoxic activity: < 1.0 LU/10^6
[1]; Mus musculus, T-cell, 144 h, 0.001 μg/ml, BALB/c responder
  inhibition at 0.001 µg/mL: 18.4%
[1]; Mus musculus, T-cell, 144 h, 0.01 μg/ml, BALB/c responder
  inhibition at 0.01 µg/mL: 33.6%
[1]; Mus musculus, T-cell, 144 h, 0.1 μg/ml, BALB/c responder
  inhibition at 0.1 µg/mL: > 95%
[1]; Mus musculus, T-cell, 144 h, 1 μg/ml, BALB/c responder
  inhibition at 1 µg/mL: > 95%
[1]; Table 3A
  induction of the allo-reactive cytotoxic T cell (in words), BALB/c responder: markedly inhibited
[2]; 0.0001 μg/ml
  IL-3 activity: 42.8 U/ml
[2]; 0.001 μg/ml
  IL-3 activity: 45.3 U/ml
[2]; 0.01 μg/ml
  IL-3 activity: 42.2 U/ml
[2]; 0.1 μg/ml
  IL-3 activity: 23.6 U/ml
[2]; 1 μg/ml
  IL-3 activity: 11.0 U/ml
[2]; Mus musculus, 48 h, 0.0001 μg/ml
  inhibition at 0.0001 µg/mL: 16.3%
[2]; Mus musculus, 48 h, 0.001 μg/ml
  inhibition at 0.001 µg/mL: 9.9%
[2]; Mus musculus, 48 h, 0.01 μg/ml
  inhibition at 0.01 µg/mL: 17.9%
[2]; Mus musculus, 48 h, 0.1 μg/ml
  inhibition at 0.1 µg/mL: 65.3%
[2]; Mus musculus, 48 h, 1 μg/ml
  inhibition at 1 µg/mL: 97.4%
[3]; [7]
  Body weight 9 days after immunization: 29.0 ± 1.7 g
  Cytotoxic T cell activity: 724 ± 202 LU/spleen
  Cytotoxic T cell activity, suppression: 28.5%
  Number of spleen cells: 3.2 ± 0.5 × 10^8 cell
[3]; [8]
  Body weight 9 days after immunization: 28.5 ± 1.0 g
  Cytotoxic T cell activity: 536 ± 272 LU/spleen
  Cytotoxic T cell activity, suppression: 47.0%
  Number of spleen cells: 2.6 ± 0.6 × 10^8 cell
[3]; 0.1 mg/kg/day ip × 5, Table 9A
  Body weight 9 days after immunization: 28.3 ± 1.4 g
  Cytotoxic T cell activity: 527 ± 172 LU/spleen
  Cytotoxic T cell activity, suppression: 47.9%
  Number of spleen cells: 2.8 ± 0.5 × 10^8 cell
[3]; 0.3 mg/kg/day ip × 5, Table 9A
  Body weight 9 days after immunization: 29.0 ± 1.8 g
  Cytotoxic T cell activity: 525 ± 58 LU/spleen
  Cytotoxic T cell activity, suppression: 48.1%
  Number of spleen cells: 3.1 ± 0.5 × 10^8 cell
[3]; 0.3 mg/kg/day po × 5, Table 9B
  Body weight 9 days after immunization: 28.0 ± 0.7 g
  Cytotoxic T cell activity: 323 ± 97 LU/spleen
  Cytotoxic T cell activity, suppression: 65.0%
  Number of spleen cells: 1.4 ± 0.2 × 10^8
[3]; 1 mg/kg/day ip × 5, Table 9A
  Body weight 9 days after immunization: 27.3 ± 1.9 g
  Cytotoxic T cell activity: 318 ± 128 LU/spleen
  Cytotoxic T cell activity, suppression: 68.6%
  Number of spleen cells: 3.2 ± 0.6 × 10^8 cell
[3]; 1 mg/kg/day po × 5, Table 9B
  Body weight 9 days after immunization: 29.0 ± 1.7 g
  Cytotoxic T cell activity: 473 ± 92 LU/spleen
  Cytotoxic T cell activity, suppression: 48.7%
  Number of spleen cells: 1.4 ± 0.3 × 10^8
[3]; 3 mg/kg/day ip × 5, Table 9A
  Body weight 9 days after immunization: 28.6 ± 1.7 g
  Cytotoxic T cell activity: < 50 LU/spleen
  Cytotoxic T cell activity, suppression: 95.1%
  Number of spleen cells: 2.7 ± 0.4 × 10^8 cell
[3]; 3 mg/kg/day po × 5, Table 9B
  Body weight 9 days after immunization: 29.4 ± 1.5 g
  Cytotoxic T cell activity: 427 ± 100 LU/spleen
  Cytotoxic T cell activity, suppression: 53.7%
  Number of spleen cells: 2.0 ± 0.3 × 10^8
[3]; 10 mg/kg/day po × 5, Table 9B
  Body weight 9 days after immunization: 27.4 ± 1.7 g
  Cytotoxic T cell activity: 274 ± 82 LU/spleen
  Cytotoxic T cell activity, suppression: 70.3%
  Number of spleen cells: 1.6 ± 0.3 × 10^8
[3]; 5 times intraperitoneal or oral
  induction of allo-reactive cytotoxic T cells (in words): strongly suppresses the induction of allo-reactive cytotoxic T cells
[4]; 0.1 μg/ml
  cytotoxicity at 72 h: 0.9%
[4]; 1 μg/ml
  cytotoxicity at 72 h: 11%
[4]; 10 μg/ml
  cytotoxicity at 72 h: 9.4%
MOLT4; 0.1 μg/ml
  Absorbancy: 1.144 ± 0.040
MOLT4; 1 μg/ml
  Absorbancy: 1.027 ± 0.009
MOLT4; 10 μg/ml
  Absorbancy: 1.045 ± 0.041
[5]; 0.1 μg/ml
  cytotoxicity at 72 h: 0.7%
[5]; 1 μg/ml
  cytotoxicity at 72 h: 2.9%
[5]; 10 μg/ml
  cytotoxicity at 72 h: 4.4%
K562; 0.1 μg/ml
  Absorbancy: 1.128 ± 0.025
K562; 1 μg/ml
  Absorbancy: 1.103 ± 0.045
K562; 10 μg/ml
  Absorbancy: 1.086 ± 0.045
[6]; 0.1 μg/ml
  cytotoxicity at 72 h: 7%
[6]; 1 μg/ml
  cytotoxicity at 72 h: 1.6%
[6]; 10 μg/ml
  cytotoxicity at 72 h: 3.3%
HL60; 0.1 μg/ml
  Absorbancy: 1.385 ± 0.066
HL60; 1 μg/ml
  Absorbancy: 1.466 ± 0.126
HL60; 10 μg/ml
  Absorbancy: 1.441 ± 0.018
